Measured values: patent US20110045101A1, “FUNGICIDAL SUBSTITUTED AZOLES” (E.I. Du Pont De Nemours and Company, priority 2009, published 2011)
Marks after values point to notes of the source that are not given here.

Assays:
Type in all cases: in vivo
Settings in all cases: 100 = 100% disease control, 0 = no control
[1] = tested on: Erysiphe graminis f. sp. tritici; assay: Test J: wheat powdery mildew on wheat seedlings, sprayed the day before inoculation, visual disease rating
Outline: (§1)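 Compounds were dissolved in acetone (3% of final volume), then suspended in 50/50 acetone/water with 250 ppm Trem 014 surfactant and sprayed to run-off on test plants. A 200 ppm suspension equals 500 g/ha. Ratings are at 200 ppm unless flagged as 40 ppm.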

[2] = tested on: Septoria nodorum; assay: Test F: wheat glume blotch on wheat seedlings, sprayed the day before inoculation, visual disease rating
Outline: as §1

[3] = tested on: Alternaria solani; assay: Test D: tomato early blight, sprayed the day before inoculation, visual disease rating
Outline: as §1

[4] = tested on: Botrytis cinerea; assay: Test C: tomato Botrytis on tomato seedlings, sprayed the day before inoculation, visual disease rating
Outline: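 Tomato seedlings sprayed to run-off with compound suspended in acetone/water with 250 ppm Trem 014 surfactant, at 200 ppm (≈500 g/ha) or 40 ppm where marked, one day before Botrytis cinerea inoculation. Disease rated visually.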

[5] = tested on: Puccinia recondita f. sp. tritici; assay: Test I: wheat leaf rust on wheat seedlings, sprayed the day before inoculation, visual disease rating
Outline: as §1

[6] = tested on: Septoria tritici; assay: Test G: wheat leaf blotch on wheat seedlings, sprayed the day before inoculation, visual disease rating
Outline: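 Visual disease ratings taken 19 days after transfer to a 20° C growth chamber, following 48 h in saturated atmosphere at 24° C. Seedlings had been sprayed to run-off one day before spore inoculation. Dose 200 ppm, or 40 ppm where starred.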

Structure (SMILES)	Test J disease control rating ([1]; 200 ppm) [%]	Test F disease control rating ([2]; 200 ppm) [%]	Test D disease control rating ([3]; 200 ppm) [%]	Test C disease control rating ([4]; 200 ppm) [%]	Test I disease control rating ([5]; 200 ppm) [%]	Test G disease control rating ([6]; 200 ppm) [%]	Test J disease control rating ([1]; 40 ppm (marked *))	Test F disease control rating ([2]; 40 ppm (marked *))	Test D disease control rating ([3]; 40 ppm (marked *))	Test C disease control rating ([4]; 40 ppm (marked *))	Test I disease control rating ([5]; 40 ppm (marked *))	Test G disease control rating ([6]; 40 ppm (marked *))
Cc1nc(Cl)c(-c2ccc(F)cc2Cl)n1-c1ccc(F)cc1 [compound 187]	100	94	100	99	100	97	–	–	–	–	–	–
Cc1ccc(-n2c(C)nc(Cl)c2-c2ccc(F)cc2Cl)cc1 [compound 188]	99	0	100	98	100	97	–	–	–	–	–	–
Cc1nc(Cl)c(-c2c(F)cccc2Cl)n1-c1ccc(F)cc1 [compound 189]	99	51	100	98	100	97	–	–	–	–	–	–
Cc1ccc(-n2c(C)nc(Cl)c2-c2c(F)cccc2Cl)cc1 [compound 190]	100	0	100	97	100	93	–	–	–	–	–	–
N#Cc1cc(F)c(-c2c(Cl)ncn2-c2ccc(Cl)cc2)c(F)c1 [compound 193]	98	0	100	99	97	98	–	–	–	–	–	–
COc1ccc(Cn2cnc(Cl)c2-c2c(F)cccc2F)cc1 [compound 194]	96	73	95	99	100	97	–	–	–	–	–	–
Fc1ccc(-n2c(Br)nc(Cl)c2-c2c(F)ccc(F)c2Cl)cc1 [compound 195]	94	64	100	99	100	94	–	–	–	–	–	–
Fc1ccc(-n2c(Cl)nc(Cl)c2-c2c(F)ccc(F)c2Cl)cc1 [compound 196]	97	0	100	99	100	92	–	–	–	–	–	–
Cc1ccc(-n2c(Br)nc(Cl)c2-c2c(F)ccc(F)c2Cl)cc1 [compound 197]	100	0	99	99	100	93	–	–	–	–	–	–
Cc1ccc(-n2c(Cl)nc(Cl)c2-c2c(F)ccc(F)c2Cl)cc1 [compound 198]	95	0	99	98	100	90	–	–	–	–	–	–
Cc1nc(Cl)c(-c2c(F)cccc2F)n1-c1cnc2ccccc2c1 [compound 199]	95	100	100	92	98	96	–	–	–	–	–	–
Fc1cccc(F)c1-n1cnc(Br)c1-c1ccc(Cl)cc1 [compound 200]	21	0	0	0	0	45	–	–	–	–	–	–
N#Cc1cc(F)c(-c2c(Cl)nc(Br)n2-c2ccc(Cl)cc2)c(F)c1 [compound 201]	100	100	100	99	96	98	–	–	–	–	–	–
Fc1ccc(-c2c(Cl)nc(Br)n2-c2ccc(Cl)c(F)c2)c(Cl)c1 [compound 202]	100	98	61	91	98	97	–	–	–	–	–	–
Fc1cc(-n2c(Br)nc(Cl)c2-c2c(F)cccc2Cl)ccc1Cl [compound 203]	99	87	98	87	100	97	–	–	–	–	–	–
Fc1cc(F)c(-n2c(Cl)nc(Cl)c2-c2ccc(Cl)cc2)c(F)c1 [compound 204]	–	–	–	–	–	–	26* %	0* %	91* %	90* %	18* %	90* %
Fc1cc(F)c(-n2cnc(Br)c2-c2ccc(Cl)cc2)c(F)c1 [compound 212]	–	–	–	–	–	–	0* %	0* %	20* %	40* %	0* %	0* %
COc1ccc(Cn2c(Cl)nc(Cl)c2-c2c(F)cccc2F)cc1Cl [compound 213]	42	0	0	63	100	96	–	–	–	–	–	–
COc1cc(F)c(-n2c(Cl)nc(Br)c2-c2ccc(Cl)cc2)c(F)c1 [compound 214]	–	–	–	–	–	–	98* %	97* %	99* %	100* %	97* %	94* %
CSc1ccc(F)c(-c2c(Cl)ncn2-c2ccc(Cl)cc2)c1F [compound 215]	91	0	85	98	68	96	–	–	–	–	–	–
Cc1nc(Br)n(-c2c(F)cccc2F)c1-c1ccc(Cl)cc1 [compound 216]	–	–	–	–	–	–	94* %	0* %	100* %	99* %	93* %	96* %
C=Cc1nc(C)n(-c2ccc(Cl)cc2)c1-c1c(F)cccc1F [compound 217]	–	–	–	–	–	–	0* %	0* %	57* %	33* %	0* %	13* %
Fc1cc(F)c(-n2c(Br)nc(Br)c2-c2ccc(Cl)cc2)c(F)c1 [compound 218]	–	–	–	–	–	–	73* %	0* %	99* %	99* %	80* %	91* %
Fc1cc(-n2c(Br)nc(Cl)c2-c2c(F)ccc(F)c2Cl)ccc1Cl [compound 219]	99	51	97	98	99	96	–	–	–	–	–	–
Fc1cc(-n2c(Cl)nc(Cl)c2-c2c(F)ccc(F)c2Cl)ccc1Cl [compound 220]	100	0	99	98	99	97	–	–	–	–	–	–
Fc1cccc(F)c1-c1c(Cl)nc(Br)n1-c1cccc(Cl)c1 [compound 221]	98	0	99	99	97	95	–	–	–	–	–	–
Fc1cccc(F)c1-c1c(Cl)nc(Cl)n1-c1cccc(Cl)c1 [compound 222]	98	0	99	99	97	99	–	–	–	–	–	–
Fc1cc(-n2c(Br)nc(Cl)c2-c2c(F)cccc2F)ccc1Cl [compound 223]	100	60	100	99	99	98	–	–	–	–	–	–
Cc1ccc(-n2c(Br)nc(Cl)c2-c2c(F)ccc(F)c2F)cc1C [compound 224]	98	0	51	93	80	90	–	–	–	–	–	–
